Data published in US9346764B2, “Imidazolidinedione compounds and their uses” (HINOVA PHARMACEUTICALS INC., priority 2011, dated 2016).
Where two headings read alike, the source gives them in different places.

Experiments:
[1] = system: human prostate cancer LNCaP cells; assay: Inhibition of the growth of prostate cancer cells (MTT), LNCaP; format: cell-based
Protocol: (§1) The ability of compounds to inhibit the growth of prostate cancer cells was tested:
(§2) First, the human prostate cancer LNCaP (purchased from ATCC, USA) and 22RV1 (purchased from SIBS) cells were transferred to a RPMI1640 culture medium containing 10% charcoal-stripped fetal bovine serum (FBS). After cultured for three days, the cells were digested with 0.25% trypsin and counted through trypan blue staining. The cells were plated, with 100 μL cell suspension containing 5000 cells per well. 200 μL medium was added to the wells around the cell plate for avoiding edge effects.
(§3) The cell plate was placed in a cell incubator for 30 min, 10 μL of 4 nM R1881 was added into each well and homogeneously mixed. Upon the addition of R1881, the cell plate was placed in a cell incubator and incubated at 37° C., under 5% CO2 for 96 hours. Afterwards, 40 μL of MTT (prepared in PBS, concentration is 2.5 mg/mL) was added into each wells, and incubated at 37° C. for 2 hours. The supernatant was sucked off, and 100 μL of DMSO was added into each well. The plate was shaken by a vibrator for 10 min for dissolving formazan. The plate was read at 570 nm wavelength using a microplate reader in the unit of OD.

[2] = system: human prostate cancer 22RV1 cells; assay: Inhibition of the growth of prostate cancer cells (MTT), 22RV1; format: cell-based
Protocol: as §1, §2, §3

[3] = system: prostate specific antigen (PSA); assay: Inhibition of prostate specific antigen (PSA) in LNCaP cells induced with R1881; format: cell-based; settings: Homo sapiens, read-out: LNCaP (IC50, nM)
Protocol: (§4) The in vitro biological activity of test compounds of the present invention as androgen receptor antagonist can be tested by the methods as reported in J. Medcinal Chemistry (2010, page 2779-2796 and WO201 1/029392).
(§5) The inhibition activity of these compounds on prostate specific antigen (PSA) was determined using prostate cancer cells (LNCaP and 22RV1). Prostate cancer cells (LNCaP and 22RV1) could be purchased from ATCC, USA. The expression of PSA in cells was induced with the artificially synthesized androgen R1881 (methyltrienolone, androgen receptor activator) to increase the sensitivity of inhibition experiment.

[4] = system: prostate specific antigen (PSA); assay: Inhibition of prostate specific antigen (PSA) in 22RV1 cells induced with R1881; format: cell-based; settings: Homo sapiens, 22Rv1, read-out: 22RV1 (IC50, nM)
Protocol: as §4, §5

[5] = Pharmacokinetic evaluation in mice; format: in vivo, Kunming mice (KM mice); settings: male KM mice, 10 mg/kg intragastrically; for Cmax / Tmax: Kunming (KM), mouse, plasma, po, DMSO:PEG400:H2O 1:5:14
Protocol: Compounds were dissolved in DMSO:PEG400:H2O 1:5:14. The volume of administration was 10 mL/kg. Before testing, the mice fasted for 12 h and drunk water ad libitum. Then, the mice were fed together at 2 h after administration. 0.3 mL of blood were took from 3 mice through retrobulbar venous plexus at 0.5, 1.0, 2.0, 4.0, 6.0 and 24 h after administration, placed in heparinized tubes, and centrifuged for 5 min at 11000 rpm. The plasma was separated and frozen in a refrigerator at −20° C. 100 uL of serum was transferred with a pipettor into a clean plastic centrifuge tube marked with compound's name and time point, and diluted with acetonitrile (CH3CN) and centrifuged. The concentration of drug was analyzed by LC-MS. Serum was stored at −80° C. before analysis.

[6] = Homo sapiens, LNCaP, 96 h, read-out: LNCaP (IC50, uM)
[7] = Homo sapiens, 22Rv1, 96 h, read-out: 22RV1 (IC50, uM)
[8] = growth inhibition, LNCaP cells, R1881 added, 96 hours, MTT, read-out: LNCaP (IC50)
[9] = Homo sapiens, growth inhibition, LNCaP cells, R1881 added, 96 hours, MTT, read-out: LNCaP (IC50)
[10] = Homo sapiens, growth inhibition, 22RV1 cells, R1881 added, 96 hours, MTT, read-out: 22RV1 (IC50)

SMILES | IC50 [1, 6] [µM] | IC50 [2, 7] [µM] | IC50 [1, 9] [µM] | IC50 [2, 10] [µM] | IC50 [3] [nM] | IC50 [4] [nM] | further results
[2H]c1cc(N2C(=S)N(c3ccc(C#N)c(C(F)(F)F)c3)C(=O)C2(C)C)ccc1C(=O)NC [Example 11, 4-{7-[4-cyano-3-(trifluoromethyl)phenyl]-5,5-dimethyl-4-oxo-2-thio-1-imidazolidinyl}-2-deutero-N-methyl benzamide] | 1.75 | 18.9 | – | – | – | – | –
CNC(=O)c1ccc(N2C(=S)N(c3ccc(C#N)c(C(F)(F)F)c3)C(=O)C2(C)C)cc1F [Example 14, 4-{7-[4-cyano-3-trifluoromethyl-2,6-dideuterophenyl]-5,5-dimethyl-4-oxo-2-thio-1-imidazolidinyl}-2-fluoro-N-trideuteromethyl benzamide] | – | – | – | – | – | – | IC50 [1, 8]: 1.5 µM
CN(C)C(=O)c1ccc(N2C(=S)N(c3ccc(C#N)c(C(F)(F)F)c3)C(=O)C23CCC3)cc1F [Example 2] | – | – | 1.37 | 20.8 | < 800 | < 1600 | –
CNC(=O)c1ccc(N2C(=S)N(c3ccc(C#N)c(C(F)(F)F)c3)C(=O)C2(C)C)cc1 [Example 12, 4-{7-[4-cyano-3-(trifluoromethyl)phenyl]-5,5-dimethyl-4-oxo-2-thio-1-imidazolidinyl}-2-deutero-N-trideuteromethyl benzamide] | – | – | – | – | – | – | IC50 [1, 8]: 2.42 µM; IC50 ([2]; growth inhibition, 22RV1 cells, R1881 added, 96 hours, MTT, read-out: 22RV1 (IC50)): 25.8 µM
[2H]C([2H])([2H])NC(=O)c1ccc(N2C(=S)N(c3ccc(C#N)c(C(F)(F)F)c3)C(=O)C2(C)C)cc1F [Example 6, 4-{7-[4-cyano-3-(trifluoromethyl)phenyl]-5,5-dimethyl-4-oxo-2-thio-1-imidazolidinyl}-2-fluoro-N-trideuteromethylbenzamide] | – | – | – | – | – | – | Cmax [5]: 10400 ng/mL; Tmax [5]: 6 h; AUC compared with undeuterated compound 17 [5]: significantly increased; Cmax increase compared with undeuterated compound 17 [5]: at least 20%
[2H]C([2H])([2H])NC(=O)c1ccc(N2C(=S)N(c3ccc(C#N)c(C(F)(F)F)c3)C(=O)C23CCC3)cc1F [Example 3] | 0.36 | 15 | – | – | < 400 | < 1000 | –
CC(O)(CS(=O)(=O)c1ccc(F)cc1)C(=O)Nc1ccc(C#N)c(C(F)(F)F)c1 (centres unmarked) [bicalutamide, reference compound] | – | – | 18.4 | 30.9 | – | – | –
CN(C)C(=O)c1ccc(N2C(=S)N(c3ccc(C#N)c(C(F)(F)F)c3)C(=O)C2(C)C)cc1F [Example 5, 4-{7-[4-cyano-3-(trifluoromethyl)phenyl]-5,5-dimethyl-4-oxo-2-thio-1-imidazolidinyl}-2-fluoro-N,N-dimethyl benzamide] | – | – | 2.07 | 23.4 | < 800 | < 1600 | –
CNC(=O)c1ccc(N2C(=S)N(c3ccc(C#N)c(C(F)(F)F)c3)C(=O)C2(C)C)cc1F [Example 4, 4-{7-[4-cyano-3-(trifluoromethyl)phenyl]-5,5-dimethyl-4-oxo-2-thio-1-imidazolidinyl}-2-fluoro-N-methyl-benzamide, reference compound] | – | – | – | – | – | – | Cmax [5]: 8450 ng/mL; Tmax [5]: 6 h
CNC(=O)c1ccc(N2C(=S)N(c3ccc(C#N)c(C(F)(F)F)c3)C(=O)C23CCC3)cc1F [Example 1, reference compound] | 4.09 | 26 | – | – | < 1000 | < 2000 | –
